The conditions of data set [1]: Liquid; for mass density: 298.15 K, 101.33 kPa, Vibrating tube method; for Normal boiling temperature: Ebulliometric method (Recirculating still).
Data set [2] in a line: refractive index (Na D-line) (dimensionless). The note with it: 298.15 K; 101.33 kPa; Liquid; Standard Abbe refractometry.

SMILES strings stand for the structures. Numbers after ± are expanded uncertainties.

For `CCCO` [propan-1-ol], in data set [1], the mass density (in general, mass per unit of volume) is given as 799.51 ± 0.31 kg/m3 and the Normal boiling temperature was found to be 97.2 ± 0.2 °C. In addition, in data set [2], the refractive index (in general, a measure of how strongly the sample bends light) amounted to 1.38305 ± 0.00075.

As to `c1ccccc1` [benzene], in data set [1], the mass density worked out at 873.6 ± 0.16 kg/m3 and the Normal boiling temperature was 80.01 ± 0.2 °C. The refractive index in data set [2] was determined as 1.49692 ± 0.00073.

In the case of `C1CCCCC1` [cyclohexane], in data set [1], the mass density amounted to 773.7 ± 0.2 kg/m3 and the Normal boiling temperature was determined as 80.64 ± 0.2 °C. In addition, in data set [2], the refractive index turned out to be 1.4232 ± 0.00073.

Values taken from the NIST ThermoML archive (doi:10.1007/s10765-015-1922-3).
